Reference: article PMC3256188, “Novel Nonphosphorylated Peptides with Conserved Sequences Selectively Bind to Grb7 SH2 Domain with Affinity Comparable to Its Phosphorylated Ligand” (PLoS ONE, 2012)
Non-standard residues stand in square brackets, D forms with d. No end group written: not given here. pY = N[C@@H](Cc1ccc(OP(=O)(O)O)cc1)C(=O)O

Experiments:
[1] = system: EYFP-tagged Grb7 SH2 domain; assay: Bioluminescence Resonance Energy Transfer (BRET) in HEK293T cells; assay type: cell-based; settings: 36 h after transfection, EYFP-Grb7 SH2 + mRLUC-tagged peptide, coelenterazine 5.9 µM, eighteen group ratios
Source text: For the BRET assay, the EYFP fragment was generated by PCR amplification. The ErbB3-mRLUC plasmid was constructed by the Beijing Sino Biological Inc. The SH2 domain of Grb7 was fused to the EYFP fragment, and the nonphosphorylated peptides 10 and 41 were fused to the mRLUC fragment. The Grb7 SH2 domain sequence was inserted at the C-terminus of the EYFP tag.
HEK293T cells at 70%–80% confluency were given fresh DMEM (high glucose) culture medium and transfected with plasmids using the calcium phosphate method. Samples were collected at 36 h after transfection.
In BRET, the Renilla luciferase (mRLUC) is fused to the candidate protein, and the green fluorescent protein mutant (EYFP) is fused to the target protein. Interactions between the two fused proteins bring the luciferase and the green fluorescent protein into close proximity, which promotes resonance energy transfer from mRLUC to EYFP [38]. Then EYFP is […] at 530 nm, and the emission is used to determine the binding between the two interacting proteins. In this study, HEK293T cells were collected at 36 h after transfection, 100 µL of mixed cell suspension was added to the u-bottom 96-well microtiter plates (Corning, USA) before measurement. The measurement of bioluminescence, with rasters of 460/40 nm and 518/20 nm, was performed on Synergy4 Multi-Mode Microplates Readers (BioTek, USA). The BRET reaction was initiated by 5.9 µM coelenterazine (Promega, USA). Data were analyzed by one-factor analysis of variance using SPSS 17.0.

[2] = system: Grb7 SH2 domain; assay: Yeast two-hybrid, Grb7 SH2 domain; assay type: cell-based; settings: yeast strain CG1945, GAL4 BD-SH2 bait, SD/-Trp-His-Leu selection and three independent improved LacZ tests
Source text: To see whether the conserved residues were required for association with the Grb7 SH2 domain, the peptide 10 was used as the mutation template to design three mutated peptides: the N-GIPT deletion mutation (10AM), the C-GIP deletion mutation (10BM) and the both N-GIPT and C-GIP deletion mutation (10CM).
The ABL_1 and Grb2 plasmids were gifts from Professor Ruibao Ren (Brandeis University, USA), and the Grb7 (BC006535) and Grb14 cDNA (BC053559) plasmids were from the Proteintech Group. The inserted sequences of the SH2 domains were as follows: Grb7: N-[…]-C; Grb2: N-[…]-C; ABL_1: N-[…]-C; and Grb14: N-[…]-C.
In the mutation assay, the control and mutation sequences were as follows:
The GAL4 BD-SH2 fusion bait plasmids were transformed into the yeast strain CG1945 using the lithium acetate protocol. The transformants were grown on SD/-Trp plates and spread on SD/-Trp-His plates for self-activation estimation. Those transformants without background growth or growth inhibited by 3-amino-1, 2, 4-triazole were selected for the subsequent screening. Approximately 3.01×10^6 clones of the random peptide library (Protocol No. PT303921, Clontech, USA), as AD baits, were effectively transformed into yeast strain CG 1945 containing BD bait plasmids and used to be screened according to the MATCHMAKER Two-Hybrid System protocol (Cat. No. 630489, Clontech, USA). Plasmids of potential positive transformants selected on plates with SD/-Trp-His-Leu medium in the primary screening were isolated and retransformed into the CG1945 cells containing the corresponding SH2 bait plasmids. The improved LacZ assay was then performed. Clones that were positive for all of the reporter assays and confirmed by three independent improved LacZ tests were selected for specific interactions.

[3] = biological target: T1, GFP-Grb7 SH2 domain and 41-mRLUC-3×Flag complex (Homo sapiens, UniProt Q14451); assay: Competition immunoprecipitation, GFP-Grb7 SH2 domain and 41-mRLUC-3×Flag complex; assay type: binding
T1 construct: expressed in transfected cells; host or cells: HEK293T
Source text: To see whether the nonphosphorylated peptide could effectively compete with phosphorylated ligand for binding to the Grb7 SH2 domain, the phosphorylated ligand pY (1180) (DEEYEpY(1180)MNRRR), which was previously shown to interact with the Grb7 SH2 domain [6], and the nonphosphorylated 41-A ligand ([…]), which contains the first twenty-two amino acid-motif close to the N-terminus of peptide 41, were examine for their abilities to interfere with the GFP-Grb7 SH2 domain and 41-mRLUC-3×Flag complex using immunoprecipitation with anti-GFP antibody.
The phosphorylated ligand pY (1180) (DEEYEpY(1180)MNRRR) from the ErbB3 and the nonphosphorylated peptide 41-A ([…] RV) from nonphosphorylated peptide 41 were synthesized by the China Peptides Co., Ltd. The HPLC purification analysis and MS quality analysis reports were obtained.
HEK293T cells were washed 5 times with ice-cold PBS buffer and scraped off the plates into cell lysis buffer (1% Nonidet P-40, 0.02 M TRIS (pH 7.5), 0.15 M sodium chloride, 0.001 M EDTA, 0.5% sodium deoxycholate, 0.1% SDS and 0.001 M PMSF). Lysates were incubated on ice for 5 minutes, vortexed 2 times for 30 seconds each and centrifuged at 12,000 rpm for 15 minutes at 4°C. After centrifuging twice, the supernatant was incubated with anti-Flag antibody (1∶100, M20008M, Abmart, China) for 6–8 h at 4°C. Protein G agarose (40 µL) was added into 1 mL of the above mixture and coupled to the anti-Flag antibody for 3 h at 4°C. The immunoprecipitates were washed 2–3 times with PBS buffer (PH 7.4), and the sediments were diluted with 5×SDS electrophoresis buffer and heated at 97°C for 10 minutes. The proteins were separated by SDS-PAGE and transferred to PVDF membranes (IPVH00010, Millipore, USA). The membranes were incubated with anti-GFP antibody (1∶2000, P30010, Abmart, China) and goat anti-rabbit secondary antibody (1∶4000, M21002, Abmart, China) to identify target proteins. For the competition analyses, the immunoprecipitation complexes were mixed with anti-Flag antibody and different concentrations of the synthesized phosphorylated ligands or the nonphosphorylated ligands. The proteins were separated by SDS-PAGE, and the SH2 domain of Grb7 protein was analyzed using anti-GFP antibody. Western blot analysis was carried out using the Image J [37], the IC50 values were calculated by regression analyses using SPSS 17.0.

[4] = biological target: T2, EGFP-Grb7 SH2 (human); assay: co-IP; competition: synthetic peptide (0.0072, 0.036, 0.18 mM) added to the immunoprecipitation complexes of Grb7 SH2 domain and 41-mRLUC-3×Flag; Grb7 SH2 blotted with anti-GFP, bands scanned (ImageJ), IC50 by regression; settings: one partner purified
T2 construct: SH2 domain of Grb7, inserted at the C terminus of the EGFP tag; also called GFP-Grb7 SH2 domain; Grb7 SH2 domain; source: HEK293T, transfected (calcium phosphate), in lysate; not shown: EGFP, N-terminal, kept
T2 chain: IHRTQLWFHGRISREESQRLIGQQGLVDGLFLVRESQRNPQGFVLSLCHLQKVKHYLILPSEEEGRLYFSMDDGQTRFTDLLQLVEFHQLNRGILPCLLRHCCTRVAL

[5] = system: SK-BR-3 breast cancer cells; assay: MTS cell proliferation assay; assay type: cell-based; settings: beginning from 24 h (measured 18, 24, 36, 48, 60 h after transfection), absorbance 492 nm, vs mRLUC-3×Flag control, p<0.01
Method: For the cell proliferation assay, the anti-Grb7 antibody (N-20, Santa Cruz Biotechnology, USA) and the anti-Flag antibody (M20008M, Abmart, China) were used for the western blot, and MTS (Promega, USA) was used for the analysis of cell proliferation.
The MTS cell proliferation assay was performed to analyze the proliferation of SK-BR-3 breast cancer cells (Cell culture center of PUMC, China) according to the manufacturer's instructions (Promega, USA). SK-BR-3 cells at 70%–80% confluency were transiently transfected respectively with plasmids of 41-mRLUC-3×Flag or mRLUC-3×Flag and Mega Tran 1.0 (OriGene, USA). Beginning from 12 h after transfection, 400 µg/mL G418 (11811-023, Invitrogen, USA) was used to select for the transfected cells. The u-bottom 96-well microtiter plates (Corning, USA) were seeded with approximately 7.50×10^3 cells per well at 18 h after transfection. […] The absorbance at 492 nm of transfected cells and control DMEM medium was measured separately at 18 h, 24 h, 36 h, 48 h and 60 h after transfection on Synergy4 Multi-Mode Microplates Readers (BioTek, USA). The absorbance was adjusted by differences in the absorbance between cell culture medium and control medium without seeded cells. The data were analyzed by double-factor variance analysis using SPSS 17.0.

“ErbB3: mRLUC-tagged ErbB3, expressed from ErbB3-mRLUC plasmid” was tested, and the “BRET luminescence ratio of 530/480 nm” value [1] was “strongest luminescence”.

For “N-AGVESL YTPTTPTLLLTRPLPGIPRGLRGW-C [10AM, N-GIPT deletion mutation of peptide 10]”, the “recognition by / interaction with the Grb7 SH2 domain” value (“recognition by / interaction” below) [2] was “None of the three mutations were recognized by the Grb7 SH2 domain”.

In the case of “N-AGVESLGIPNYTPTTPTLLLTRPLP RGLRGW-C (AGVESLGIPNYTPTTPTLLLTRPLPRGLRGW; left off: Gal4 activation domain (inferred: two-hybrid prey), end not stated, kept) [10BM, C-GIP deletion mutation of peptide 10]”, the “recognition by / interaction” value [2] is reported as “None of the three mutations were recognized by the Grb7 SH2 domain”.

For “N-AGVESLYTPTTPTLLLTRPLPRGLRGW-C [peptide 10CM, both N-GIPT and C-GIP deletion mutation of peptide 10]”, the “BRET luminescence ratio of 530/480 nm” value [1] was “non-interacting” and the “recognition by / interaction” value [2] was “None of the three mutations were recognized by the Grb7 SH2 domain”.

In the case of “N-GMWEGLEGGGVAGVESLGIPNYTPTTPTLLLTRPLPGIPRGLRGWSLLRCCRLLCRNSYITAAPKHHHPLQTSPRGSPGLQEFDIKLIDTVDLEGGPGTQFAL-C [peptide 10, nonphosphorylated peptide identified from random peptide library; mutation template]”, the “BRET luminescence ratio of 530/480 nm” value [1] is reported as “significantly stronger” and the “BRET luminescence ratio of 530/480 nm” value ([1]; listed as Peptide 10) is reported as “slightly stronger BRET signals compared to peptide 41”.

“VAVGIPTQPTTSSEPSPPSNPPWDPGRV [peptide 41-A, synthesized nonphosphorylated ligand containing the first twenty-two amino acid-motif of peptide 41]” was tested, and the “interference with binding of the Grb7 SH2 domain to peptide 41” value (from here on “interference with binding”) ([3]; 0.0072 mM) was “did not significantly interfere”, the “interference with binding” value ([3]; 0.036 mM) was “did not significantly interfere” and the “interference with binding” value ([3]; 0.18 mM) was “nearly abolished”. The “disruptive effect on the Grb7 SH2 domain/peptide 41 interaction” value ([3]; Figure 3A, overall, concentration not given) was “even stronger than that of the pY (1180) ligand” and the “binding affinity to the Grb7 SH2 domain, comparison of 41-A and pY (1180)” value ([3]; in vitro competition, in words) was “at least comparable binding affinities to the Grb7 SH2 domain”.

B1: phosphorylated ligand pY (1180) from ErbB3 (peptide)
peptide: DEEYE[pY]MNRRR
notes: ErbB3 stretch around Y1180; source: synthetic peptide (China Peptides Co., Ltd.)
For B1, the IC50 [4] was 31.8 µM.

B2: nonphosphorylated 41-A ligand (peptide)
peptide: VAVGIPTQPTTSSEPSPPSNPPWDPGRV
notes: stretch of peptide 41 with its first 22-residue motif; also called peptide 41-A; source: synthetic peptide (China Peptides Co., Ltd.)
For B2, the IC50 [4] was 18.8 µM.

B3: 41-mRLUC-3×Flag: fusion protein of peptide 41 with mRLUC and 3×Flag, expressed from transfected plasmid (protein)
chain: VGTWTTRGPWCPCVAVGIPTQPTTSSEPSPPSNPPWDPGRVLLGRIVWPGLLALGIPTHHQNDTYNSPHAHPNRDP
modifications: left off: mRLUC, C-terminal, kept | 3×Flag, C-terminal, kept
notes: fusion protein of peptide 41 with mRLUC and 3×Flag, expressed from transfected plasmid
B3 was tested, and the “proliferation of transfected SK-BR-3 cells (MTS absorbance)” value [5] was “significantly slower than that of the mRLUC-3×Flag control group”.
